Assay results as given in patent US20230233684A1, “USE OF CHELATORS FOR THE PREVENTION OF VISIBLE PARTICLE FORMATION IN PARENTERAL PROTEIN SOLUTIONS” (Hoffmann-La Roche Inc., priority 2020, published 2023).
Read-outs that look alike come from different tables or passages of the source.

Key:
Type in all cases: physicochemical
[1] = Spiking study with free fatty acids and aluminum, visible particles by Seidenader (Table 4A); conditions: Seidenader results
Procedure: A 100 ppm aluminum stock solution was prepared from aluminum chloride hexahydrate in 20 mM histidine acetate pH 5.5. The actual concentration of aluminum was determined by inductively-coupled plasma mass spectrometry (ICP-MS). This stock solution was then diluted to 10 ppm Al^3+ and sterile-filtered through a 0.22 μm porosity filter cartridge (Sterivex-GV, Millipore).
All vials were sealed with 20 mm teflonized injection stoppers (D777-1, Daikyo) and aluminum crimp caps and homogenized on a MaxQ™ 4000 Benchtop Orbital Shaker (Thermo Scientific™, Waltham, Mass., USA) for 1 hour at 25° C.
LAMA-10 only comprised polysorbate 20 and was used for the preparation of negative controls. All samples were prepared in triplicates.
Samples were stored at 5° C. and the formation of visible particles was assessed for up to 28 days using a black/white and a Seidenader V 90-T instrument (Seidenader Maschinenbau GmbH, Markt Schwaben, DE) as described above.
Samples were analyzed for the presence of visible particles after storage at 2-8° C. for 0, 1 day, 7 days and 28 days using the (A) Seidenader and (B) E/P box.

[2] = FFA particle nucleation by DLS: impact of aluminum concentration on particle kinetics; conditions: 20 ppb Al; 5° C.; not captured in the 40 hours experiment
Procedure: DLS experiments were performed on DynaPro(R) plate reader (Wyatt, Santa Barbara, Calif.). The DLS plate reader is flushed with nitrogen 5 hours before commencing the measurements and cooled down to 5° C. during the entire duration of the measurements. 200 μL of sample solutions comprising of 20 μg lauric acid (LA) in 20 mM L-Histidine buffer at pH 6.0 supplemented with 6% v/v DMSO, and varying amounts of metal ions (Al^3+, Fe^3, Zn^2+, Mg^2+, Ca^2+, Ni^2+) were mixed in the cuvettes of black glass bottom 96 well plates (Greiner Bio-One GmbH, Frickenhausen, Germany). FFA nucleation and particle growth were measured over 40-70 hours using a 633 nm laser and a backscatter detection system at 158°. The hydrodynamic particle radius (rH) was determined by fitting a cumulant fit to the obtained auto-correlation function. […]
Al sample solutions (100×) in 20 mM Histidine buffer pH 6.0 were prepared from a sterile 50 ppm Al stock solution (20 mM Glycine pH 2.5) and were spiked into the DLS assay buffer at target concentrations of 0, 20, 40, 60 and 100 ppb Al. Particle nucleation and growth was measured over a period of 40 hours as described above.
Quantitative analysis was performed by analyzing the intensity of the scattered laser light of the FFA particles over time by fitting a sigmoidal Boltzmann function to the growth curves. […]

[3] = FFA particle nucleation by DLS: interaction of bi- and trivalent cations with lauric acid; conditions: for FFA salt particle formation and growth (DLS): metal ion 0-30 μM, 70 hours, 5° C.
Procedure: DLS experiments were performed on DynaPro(R) plate reader (Wyatt, Santa Barbara, Calif.). The DLS plate reader is flushed with nitrogen 5 hours before commencing the measurements and cooled down to 5° C. during the entire duration of the measurements. 200 μL of sample solutions comprising of 20 μg lauric acid (LA) in 20 mM L-Histidine buffer at pH 6.0 supplemented with 6% v/v DMSO, and varying amounts of metal ions (Al^3+, Fe^3, Zn^2+, Mg^2+, Ca^2+, Ni^2+) were mixed in the cuvettes of black glass bottom 96 well plates (Greiner Bio-One GmbH, Frickenhausen, Germany). FFA nucleation and particle growth were measured over 40-70 hours using a 633 nm laser and a backscatter detection system at 158°. The hydrodynamic particle radius (rH) was determined by fitting a cumulant fit to the obtained auto-correlation function. […] The laser power was adjusted before each measurement sequence and kept constant during the entire measurement. The attenuation level was set to zero for all measurements in order to collect the maximum amount of scattered light. Aluminium (Al), Iron (Fe), Zink (Zn), Magnesium (Mg), Calcium (Ca) and Nickel (Ni) stock solutions were prepared at 4 mM in Milli-Q water pH 2.5 from their respective salts and stored at 2-8° C. until used. Diluted sample solutions (100×) were freshly prepared in Milli-Q water pH 2.5. The DLS assay buffer was added to the salt sample solutions to attain metal ion target concentrations of 0, 1, 3, 10 and 30 μM. Particles size (rH) and intensity were measured over a period of 70 h as described above.

[4] = Spiking study with partially degraded polysorbate 20 and aluminum, visible particles by E/P box; conditions: 0.05 mM DTPA or 0.005% (w/v) EDTA; 250 ppb aluminum; partially degraded polysorbate below the solubility limit
Procedure: Diluted aluminum solutions comprising in 20 mM histidine acetate pH 5.5 were prepared as described above and filled into 20 mL type I borosilicate glass vials (Schott, Mainz, DE). […] Vials were sealed with 20 mm teflonized injection stoppers (D777-1, Daikyo) and aluminum crimp caps and homogenized on a MaxQ™ 4000 Benchtop Orbital Shaker (Thermo Scientific™, Waltham, Mass., USA) for 1 hour at 25° C.
PS20-Std only comprised non-degraded polysorbate 20 and was used for the preparation of negative controls. All samples were prepared in triplicates.
Samples were stored at 5° C. and particle formation was assessed for up to 28 days by visual inspection using a black/white panel according Ph.
Samples were visually inspected (E/P box) for the presence of visible particles after incubation for 0, 1 day, 7 days and 28 days at 2-8° C.

[5] = Spiking study with different PS20 and PS80 grades, aluminum and DTPA, visible particles by E/P (Table 10); conditions: 50 μM DTPA, 250 ppb aluminum, all grades of PS
Procedure: (§1) Super refined (SR) PS20 and PS80, high purity (HP) PS20 and PS80, as well as pure oleic acid (POA) PS80 were enzymatically hydrolyzed by 10% using immobilized enzymes (Graf et al. 2020) (mucor miehei lipase (MML), Candida antarctica lipase (CAL) and Candida antarctica lipase B (CALB)). […] Diluted aluminum solutions comprising in 20 mM histidine acetate pH 5.5 were prepared as described above and filled into 20 mL type I borosilicate glass vials (Schott, Mainz, DE). Samples containing either 0 or 250 ppb of aluminum (Al^3) were spiked with different PS stock solutions (HP PS20, SR PS20, HP PS80, SR PS80, POA PS80; degradation level of 0 or 10%). In addition, samples containing 250 ppb aluminum were supplemented with 0.05 mM diethylenetriaminepentaacetic acid (DTPA) prior spiking with partially degraded PS. Vials were sealed with 20 mm teflonized injection stoppers (D777-1, Daikyo) and aluminum crimp caps and homogenized on a MaxQTM 4000 Benchtop Orbital Shaker (Thermo ScientificTM, Waltham, Mass., USA) for 1 hour at 25° C. […] Different grades of non-degraded polysorbate 20 and 80 served as negative controls. All samples were prepared in triplicates. Samples were stored at 5° C. and particle formation was assessed for up to 22 days by visual inspection using a black/white panel according Ph. Eur. 2.9.20. and enhanced visual inspection ([…] instrument) as described above.

[6] = Spiking study with different PS20 and PS80 grades, aluminum and DTPA, visible particles by Seidenader (Table 11); conditions: DTPA, 250 ppb aluminum, independent of PS grade or enzyme
Procedure: as §1

[7] = FFA metal nucleation by DLS in presence of DTPA, Fe nucleation study
Procedure: (§2) DLS experiments were performed on DynaPro(R) plate reader (Wyatt, Santa Barbara, Calif.). The DLS plate reader is flushed with nitrogen 5 hours before commencing the measurements and cooled down to 5° C. during the entire duration of the measurements. 200 μL of sample solutions comprising of 20 μg lauric acid (LA) in 20 mM L-Histidine buffer at pH 6.0 supplemented with 6% v/v DMSO, and varying amounts of metal ions (Al^3+, Fe^3, Zn^2+, Mg^2+, Ca^2+, Ni^2+) were mixed in the cuvettes of black glass bottom 96 well plates (Greiner Bio-One GmbH, Frickenhausen, Germany). FFA nucleation and particle growth were measured over 40-70 hours using a 633 nm laser and a backscatter detection system at 158°. The hydrodynamic particle radius (rH) was determined by fitting a cumulant fit to the obtained auto-correlation function. The lower and upper boundary for the cumulant fit was set to lag times τ of 10 μs and 1000 μs respectively. The laser power was adjusted before each measurement sequence and kept constant during the entire measurement. The attenuation level was set to zero for all measurements in order to collect the maximum amount of scattered light.
For the Al nucleation study, a metal ion target concentration of 2 μM was used. […] For the Fe nucleation study, the target concentration of Fe was 4 μM. The final concentration of DTPA was either 0, 0.04, 0.4, 2.0, 4.0 or 40 μM resulting in molar ratios (DTPA:Fe) of 0, 0.01, 0.1, 0.5, 1.0 and 10, respectively. DLS measurements were conducted over 50 hours at 5° C. as described above.

[8] = FFA metal nucleation by DLS in presence of DTPA and real glass leachables; conditions: lauric acid and real glass leachables
Procedure: as §2
Representative glass leachables solutions were prepared according to a procedure disclosed in Allmendinger et al. (Allmendinger et al. 2021). […]

[9] = Solubility of free fatty acids in histidine acetate buffer pH 5.5, visible particles by Seidenader; conditions: kinetic from dmso stock
Procedure: In brief, lauric acid (“LA”. Sigma-Aldrich/Merck, Darmstadt, DE) and myristic acid (“MA”, Sigma-Aldrich/Merck, Darmstadt, DE) were suspended in PS20 HP (Croda, Edison, N.J., USA) and stirred (150 rpm) for 30 min at 60° C. until both FFAs were fully dissolved. Solutions were diluted 1:5 with pre-warmed (60° C.) water for injection (WFI) and immediately filtered through 0.22 μm PVDF Steriflip filters (Merck Millipore, Darmstadt, DE). The concentration of LA and MA in FFA stock solutions was verified by LC-MS as described by Honemann et al. (Honemann et al. 2019) LA/MA/PS20 stock solutions were spiked into 20 mM histidine acetate buffer pH 5.5 (1:500 dilution, n=3) and homogenized on a MaxQ™ 4000 Benchtop Orbital Shaker (Thermo Scientific™, Waltham, Mass., USA) for 1 hour at 25° C. Samples were stored at 5° C. and analyzed for visible particles after 0, 1, 7 and 28 days using a black/white panel according Ph. Eur. 2.9.20 (European Directorate for the Quality of Medicines) and a Seidenader V 90-T instrument (Seidenader Maschinenbau GmbH, Markt Schwaben, DE). […]
Free fatty acid (FFA) stock solutions of lauric acid (LA) and myristic acid (MA) were spiked into 20 mM histidine acetate buffer pH 5.5 (n=3). Samples were analyzed for the presence of visible particles after incubation at 2-8° C. for 0, 1 day, 7 days and 28 days using the (A) Seidenader and (B) E/P box.

[Al+3] [Al]
Trace amount of aluminum sufficient to complex free fatty acids and form visible particles [1]: 10 ppb | Inflection point of the sigmoidal curve fit of scattering intensity [2]: around 65 hours | FFA salt particle formation and growth (DLS) [3]: particle formation and growth

[Ca+2] [Ca]
FFA salt particle formation and growth (DLS) [3]: did not lead to FFA salt particle formation or growth

O=C(O)CN(CCN(CC(=O)O)CC(=O)O)CCN(CC(=O)O)CC(=O)O [DTPA, Diethylenetriaminepentaacetic acid]
Formation of visible FFA particles on addition of chelator [4]: successfully prevented | Visible particles in presence of the chelator [5]: no particles were observed | Particle formation in presence of the chelator [6]: significantly mitigated | Particle radius ([7]; DTPA to Fe ratio of 0.5): only slightly changed | Scattering intensity ([7]; DTPA to Fe ratio of 0.5): significantly decreased | Particle formation and growth (DLS) ([7]; equimolar amounts of DTPA, lauric acid and 4 μM Fe): complete suppression | Molar ratio of chelator to Al efficient in mitigating particle formation [8]: at least 1.5

[Fe+3] [Fe]
Hydrodynamic particle radius rH ([3]; instant particle formation, no further increase over time): 50-60 nm | FFA salt particle formation and growth (DLS) [3]: particle formation and growth

[Mg+2] [Mg]
FFA salt particle formation and growth (DLS) [3]: did not lead to FFA salt particle formation or growth

[Ni+2] [Ni]
FFA salt particle formation and growth (DLS) [3]: did not lead to FFA salt particle formation or growth

[Zn+2] [Zn]
FFA salt particle formation and growth (DLS) [3]: did not lead to FFA salt particle formation or growth

CCCCCCCCCCCC(=O)O [lauric acid]
solubility at 28 days ([9]; 20 mM histidine acetate buffer with 0.04% PS20, 5 °C, aqueous with cosolvent or surfactant or cyclodextrin, lauric and myristic acid together, histidine acetate buffer pH 5.5, 0.04% PS20, 2-8° C., 28 days, Seidenader and E/P box, read-out: Solubility limit (concentration at which free fatty acids exceeded the solubility limit)): < 12.5 µg/mL

CCCCCCCCCCCCCC(=O)O [myristic acid]
solubility at 28 days ([9]; 5 °C, pH 5.5, aqueous with cosolvent or surfactant or cyclodextrin): < 5 µg/mL
